Columns and labels:
Sunkus murinus = assay: Effect on vomiting induction in male Sunkus murinus; type: in vivo; conditions: dose 10 mg/kg i.p., observed for 1 hour after administration
Experimental: Five to fifteen male Sunkus murinus per group weighing approximately 60 g were used for the test. According to the method of Matsumoto, et. al. [Japan J. Pharmacol., 48, 303 (1988)], Sunkus murinus were placed separately into metal wire cages (width 15 cm×length 21 cm×height 15 cm). Each sample of the test compound was suspened in a 0.5% Tween 80 physiological saline solution and administered intraperitoneally (i.p.) at a dose of 10 ml/kg. […] In the group that was administered the test-compound, the results are represented as the number of vomiting animals/the number of experimental animals. Compound RA was employed as a reference compound.

TNF α production = assay: Suppression effect on TNF α production in the LPS induced mouse sepsis model; type: in vivo; conditions: serum TNF α
Experimental: Lipopolysaccharide (LPS, DIFCO Laboratories) was dissolved in physiological saline to make a final concentration of 0.2 mg/ml. The resulting solution was administered intravenously to the tail of Balb/c male mice (7-week-old) (Charls River Japan Co.) at 200 μl per 20 g body weight of 5 to 6 mice/group. One hour after administration, blood was drawn from a fundus oculi vein of each mouse to obtain serum. […] The concentration of TNF a in serum was measured by enzyme-linked immunosorbent assay (ELISA method) as follows: […] anti-mouse TNF a monoclonal antibody (Pharmingen Inc.) diluted with a phosphate buffer solution (PBS) was added to a 96-well microtiter plate (Nalge Nunc International immuno-plate <MaxiSorp=) at […]; allowed to stand at 4° C. for 12 hours for coating; mixed with […] of a phosphate buffer solution containing 1% bovine serum albumin (BSA) (1% BSA-PBS); allowed to stand at room temperature for 1 hour to block the non-specific binding; washed with phosphate buffer solution; mixed with […] of the subject serum diluted two-fold with 1% BSA-PBS; and allowed to stand at room temperature for 2 hours. Furthermore, recombinant mouse TNF α (Genzyme Corp.) diluted with 1% BSA-PBS was similarly treated and used as a standard substance. These plates were washed three times with PBS (0.05% Tween-PBS) containing 0.05% polyoxyethylenesorbitan monolaurate (Tween 20, Wako Pure Chemical Industries, Ltd.), mixed with […] of biotin-labelled anti-mouse TNF α monoclonal antibody (Method A: Pharmingen Inc.; Method B: Genzyme Corp) diluted with 1% BSA-PBS to make a concentration of 1 mg/ml, allowed to stand at room temperature for 1 hour, washed three times with 0.05% Tween-PBS, mixed with […] of horseradish peroxidase avidin D (Vector Laboratories Inc.) diluted four-thousand-fold with 1% BSA-PBS, and allowed to stand at room temperature for 30 min. Finally, these plates were washed three times with 0.05% Tween-PBS, and mixed with […] of 3,3′,5,5′-tetramethylbenzidine. After color development, the reaction was stopped by adding […] of 10% sulfuric acid solution, and then, the absorbance at 450 nm was measured. The concentration of TNF α in serum was calculated from a calibration curve.
The rate of suppression of each test compound on TNF α production was obtained from the following formula:
Suppression rate=(A−B)/A,
wherein A is the TNF α concentration of the control group and B is the TNF α concentration of the experimental group.
In the above formula, the TNF α concentration of the control group is defined as the value obtained in the absence of the test compound (0.5% methyl cellulose solution alone).
Employed as the reference compounds were 7-methoxy-4-[1-oxo-2-(4-pyridyl)ethyl]-spiro[2,3-dihydrobenzofuran-2,1′-cyclopentane] hydrochloride (disclosed in Example 100 of Japanese Patent Laid-Open No. 8-836624 and hereinafter referred to as Compound RA) having the formula (RA) and 2-benzoyl-4-(3,5-dichloro-4-pyridyl)aminocarbonyl)-7-methoxybenzofuran (disclosed in Example 35 of Japanese Patent Laid-Open No. 8-534708 and hereinafter referred to as Compound RB) having the formula (RB): [drawing 660]

[1] = system: neutrophil and eosinophil accumulation; assay: Effect on neutrophil and eosinophil accumulation in BN rats; type: in vivo, rat; conditions: dose of 30 mg/kg p.o.; BALF 24 hours after antigen
Experimental: The Howell et al's method (Pulmonary Pharmacology, 8, […] (1995)) was partly modified and used for the active sensitization and the antigen exposure.
Oval albumin (OA) (1 mg) and aluminium hydroxide (200 mg) were subcutaneously injected into male Brown-Norway rats (6 week-age, Nippon Charles River), to which were intra abdominally administered dead cells of Bordetella pertussis for the active sensitization of the rats. After 14 days, the rats were put into a plastic chamber (30×50×30 cm), and left to inspire a 1% (w/v) OA solution for 10 minutes for antigen induction. For the inspiration, used was an ultrasonic nebulizer (NE-U12, by Omron, Tokyo).
The test compound was suspended in 0.5% methyl cellulose, and orally administered (p.o.) to the rats one hour prior to the antigen challenge. The group of the rats to which 0.5% methyl cellulose was administered and which were left to inspire OA was referred to as OA Group, while the group of the rats which were left to inspire a physiological saline solution in place of OA was referred to as Saline Group.
After 24 hours from the antigen induction, bronchoalveolar lavage (BAL) was performed. […] Then, the number of all leukocytes existing in the resulting suspension was counted, using an automatic leukocyte counter (Celltac α MEK-6158, by Nippon Koden, Tokyo). […]

phosphodiesterase 4A = target: T1, phosphodiesterase 4A (Homo sapiens, UniProt P27815); assay: Recombinant human PDE4A assay; type: biochemical; conditions: 10^−7 M, read-out: Enzyme Inhibitory Activity (%, 10^−7 M)
T1 construct: made in house; host or cells: E. coli
T1 sequence (P27815 224-886 limits assumed): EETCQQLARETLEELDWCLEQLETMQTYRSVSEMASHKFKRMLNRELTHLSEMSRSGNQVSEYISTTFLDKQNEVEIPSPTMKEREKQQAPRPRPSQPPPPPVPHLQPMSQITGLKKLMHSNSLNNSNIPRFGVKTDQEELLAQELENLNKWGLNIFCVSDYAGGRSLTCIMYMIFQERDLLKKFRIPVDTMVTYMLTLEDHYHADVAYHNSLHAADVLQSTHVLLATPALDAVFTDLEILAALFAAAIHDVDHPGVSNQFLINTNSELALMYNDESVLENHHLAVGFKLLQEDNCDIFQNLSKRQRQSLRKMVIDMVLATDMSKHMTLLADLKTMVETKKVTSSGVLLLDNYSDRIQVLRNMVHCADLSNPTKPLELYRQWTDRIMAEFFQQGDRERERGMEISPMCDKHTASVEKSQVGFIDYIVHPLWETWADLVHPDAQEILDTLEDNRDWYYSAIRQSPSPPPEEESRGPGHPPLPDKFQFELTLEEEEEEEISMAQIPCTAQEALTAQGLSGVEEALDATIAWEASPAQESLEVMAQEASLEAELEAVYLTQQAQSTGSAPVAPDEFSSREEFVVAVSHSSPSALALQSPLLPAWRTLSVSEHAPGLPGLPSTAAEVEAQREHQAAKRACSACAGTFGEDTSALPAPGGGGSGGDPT

[2] = Method B, dose 30 mg/kg orally 90 min before LPS
[3] = Method A, dose 10 mg/kg orally 90 min before LPS

## COc1ccc(C(=O)Nc2c(Cl)cncc2Cl)c2cc(C(=O)CCCN3CCN(C)CC3)oc12 [Compound 214, N-(3,5-dichloropyridin-4-yl)-2-[4-(4-methyl-1-piperazinyl)]-butyryl-7-methoxybenzofuran-4-carboxamide]
Sunkus murinus
  Number of vomiting animals/Number of experimental animals: 3/5
TNF α production; [2]
  Suppression rate (%): 65%

## COc1ccc(C(=O)Nc2c(Cl)cncc2Cl)c2cc(C(=O)N3CCN(C)CC3)oc12 [Compound 201, 4-(3,5-dichloro-4-pyridyl)aminocarbonyl-7-methoxy-2-(4-methyl-1-piperazinyl)carbonylbenzofuran]
Sunkus murinus
  Number of vomiting animals/Number of experimental animals: 0/5
TNF α production; [3]
  Suppression rate (%): 70%

## COc1ccc(C(=O)Cc2c(Cl)cncc2Cl)c2cc(C(=O)NCCN3CCOCC3)oc12 [Compound 216, N-(2-morpholinoethyl)-4-[2-(3,5-dichloropyridin-4-yl)-1-oxo]ethyl-7-methoxybenzofuran-2-carboxamide]
Sunkus murinus
  Number of vomiting animals/Number of experimental animals: 0/5
TNF α production; [3]
  Suppression rate (%): 75%
[1]
  inhibiting activity against eosinophils: 100%
  inhibiting activity against neutrophils: 92%

## COc1ccc(C(=O)Cc2c(Cl)cncc2Cl)c2cc(C(=O)N3CCN(C)CC3)oc12 [Compound 206]
Sunkus murinus
  Number of vomiting animals/Number of experimental animals: 0/5
TNF α production; [2]
  Suppression rate (%): 65%

## COc1ccc(-c2ccc(C(=O)O)cc2)c2c1OC(C)(C)O2 [Compound 204, 7-(4-carboxyphenyl)-2,2-dimethyl-4-methoxy-1,3-benzodioxole]
Sunkus murinus
  Number of vomiting animals/Number of experimental animals: 2/5
TNF α production; [3]
  Suppression rate (%): 79%
other
  melting point: 237 to 239 °C

## 7-(4-carboxy-4-pyridyl)-4-methoxy-spiro[1,3-benzodioxole-2,1=-cyclopentane] [Compound 203]
Sunkus murinus
  Number of vomiting animals/Number of experimental animals: 1/5
TNF α production; [3]
  Suppression rate (%): 100%

## COc1ccc(C(=O)Nc2c(Cl)cncc2Cl)c2cc(C(=O)N3CCN(CCO)CC3)oc12 [Compound 202, 4-(3,5-dichloro-4-pyridyl)aminocarbonyl-7-methoxy-2-[4-(2-hydroxyethyl)-1-piperazinyl]carbonylbenzofuran]
Sunkus murinus
  Number of vomiting animals/Number of experimental animals: 0/5
TNF α production; [3]
  Suppression rate (%): 92%

## COc1ccc(C(=O)Cc2c(Cl)cncc2Cl)c2cc(C(=O)N3CCN(CCO)CC3)oc12 [Compound 207, 4-[2-(3,5-Dichloro-4-pyridyl)-1-oxoethyl]-2-[4-(2-hydroxyethyl)-1-piperazinylcarbonyl]-7-methoxybenzofuran]
Sunkus murinus
  Number of vomiting animals/Number of experimental animals: 0/5
TNF α production; [2]
  Suppression rate (%): 65%

## COc1ccc(-c2cnccc2C)c2c1OC1(CCCC1)O2 [Compound 205, 4-methoxy-7-(4-methyl-3-pyridyl)-spiro[1,3-benzodioxole-2,1′-cyclopentane]]
Sunkus murinus
  Number of vomiting animals/Number of experimental animals: 0/5
TNF α production; [3]
  Suppression rate (%): 79%

## COc1ccc(C(=O)Nc2c(Cl)cncc2Cl)c2cc(C(=O)CCCN3CCOCC3)oc12 [Compound 213, N-(3,5-Dichloropyridin-4-yl)-2-(4-morpholino)butyryl-7methoxybenzofuran-4-carboxamide]
Sunkus murinus
  Number of vomiting animals/Number of experimental animals: 0/5
TNF α production; [2]
  Suppression rate (%): 65%

## COc1ccc(C(=O)Cc2ccncc2)c2c1OC1(CCCC1)C2.Cl [RA, 7-methoxy-4-[1-oxo-2-(4-pyridyl)ethyl]-spiro[2,3-dihydrobenzofuran-2,1′-cyclopentane] hydrochloride, reference compound]
Sunkus murinus
  Number of vomiting animals/Number of experimental animals: 5/5
TNF α production; [3]
  Suppression rate (%): 81%
TNF α production; [2]
  Suppression rate (%): 81%

## COc1ccc(C(=O)Cc2c(Cl)cncc2Cl)c2c1OC1(CCCCC1)C2 [Compound 101, 4-[2-(3,5-Dichloro-4-pyridyl)-1-oxoethyl]-7-methoxy-spiro[2,3-dihydrobenzofuran-2,1′-cyclohexane]]
other
  melting point: 149 to 151 °C
Phosphodiesterase 4A
  inhibition at 0.1 µM: 100%

## COc1ccc(C(=O)Nc2c(Cl)cncc2Cl)c2cc(C(=O)c3ccccc3)oc12 [RB, reference compound]
Sunkus murinus
  Number of vomiting animals/Number of experimental animals: 0/5
TNF α production; [3]
  Suppression rate (%): 48%
TNF α production; [2]
  Suppression rate (%): 30%

## COc1ccc(C(=O)Cc2c(Cl)cncc2Cl)c2c1OCCCCO2 [Compound 194, 7-[2-(3,5-dichloro-4-pyridyl)-1-oxoethyl]-10-methoxy-2,3,4,5-tetrahydro-1,6-benzodioxocin]
other
  melting point: 142 to 143 °C
Phosphodiesterase 4A
  inhibition at 0.1 µM: 92%

## COc1ccc(C(=O)Cc2c(Cl)cncc2Cl)c2c1OCCCO2 [Compound 189, 6-[2-(3,5-dichloro-4-pyridyl)-1-oxoethyl]-3,4-dihydro-9-methoxy-2H-1,5-benzodioxepin]
other
  melting point: 150 to 151 °C
Phosphodiesterase 4A
  inhibition at 0.1 µM: 84%

Reference: patent publication US6716987B1, “Derivatives of benzofuran or benzodioxazole compounds” (Kyowa Hakko Kogyo Co., Ltd., priority 1995, dated 2004)
